37 compounds from patent publication US20260132164A1, “PNU ANTHRACYCLINE DERIVATIVES AND METHODS OF USE THEREOF” (Merck Sharp & Dohme LLC, priority 2022, published 2026) can be followed below.

Each structure is given as a SMILES string.

A word on the EC50: it is the concentration needed to bring the measured effect to its halfway point.

The first experiment deals with BxPC3. The experiment can be described thus: CellTiter-Glo 2.0 Cytotoxicity Assay. The class given is cell-based. To be noted: CellTiter-Glo 2.0 luminescence; compound added day 1, read on day 4 or 5; 3000 cells/well.
In turn, `COc1cccc2c1C(=O)c1c(O)c3c(c(O)c1C2=O)C[C@@](O)(C(=O)NCC1CC(=O)NC1=O)C[C@@H]3O[C@H]1C[C@H]2[C@H](O[C@@H]3[C@@H](OC)OCCN32)[C@H](C)O1` (stereo partly shown) [Compound 88] gave an EC50 of 0.27 nM.

Turning to `COc1cccc2c1C(=O)c1c(O)c3c(c(O)c1C2=O)C[C@@](O)(C(=O)NC1CNCC1(F)F)C[C@@H]3O[C@H]1C[C@H]2[C@H](O[C@@H]3[C@@H](OC)OCCN32)[C@H](C)O1` (stereo partly shown) [Compound 17], the EC50 is 10.7 nM.

The same experiment, now with this note: Homo sapiens, BXPC-3, CellTiter-Glo 2.0 luminescence; compound added day 1, read on day 4 or 5; 3000 cells/well.
`COc1cccc2c1C(=O)c1c(O)c3c(c(O)c1C2=O)C[C@@](O)(C(=O)NCc1cccc(N)c1)C[C@@H]3O[C@H]1C[C@H]2[C@H](O[C@@H]3[C@@H](OC)OCCN32)[C@H](C)O1` [Compound 1, (2S,4S)—N-(3-aminobenzyl)-2,5,12-trihydroxy-7-methoxy-4-(((1S,3R,4aS,9S,9aR,10aS)-9-methoxy-1-methyloctahydro-1H-pyrano[4′,3′:4,5]oxazolo[2,3-c][1,4]oxazin-3-yl)oxy)-6,11-dioxo-1,2,3,4,6,11-hexahydrotetracene-2-carboxamide] displayed an EC50 of 0.08 nM.

As to `COc1cccc2c1C(=O)c1c(O)c3c(c(O)c1C2=O)C[C@@](O)(C(=O)NCCN1CCC(N)C1=O)C[C@@H]3O[C@H]1C[C@H]2[C@H](O[C@@H]3[C@@H](OC)OCCN32)[C@H](C)O1` (stereo partly shown) [Compound 15], the EC50 was 64 nM.

The compound `COc1cccc2c1C(=O)c1c(O)c3c(c(O)c1C2=O)C[C@@](O)(C(=O)N1CC(CN2CC(N)C2)C1)C[C@@H]3O[C@H]1C[C@H]2[C@H](O[C@@H]3[C@@H](OC)OCCN32)[C@H](C)O1` [Compound 10] yielded an EC50 of 124 nM.

In turn, `COc1cccc2c1C(=O)c1c(O)c3c(c(O)c1C2=O)C[C@@](O)(C(=O)NCCNC(=O)[C@@H]1CCCN1)C[C@@H]3O[C@H]1C[C@H]2[C@H](O[C@@H]3[C@@H](OC)OCCN32)[C@H](C)O1` [Compound 3] registered an EC50 of 13 nM.

For `COc1cccc2c1C(=O)c1c(O)c3c(c(O)c1C2=O)C[C@@](O)(C(=O)NCc1ccc(CN)cc1)C[C@@H]3O[C@H]1C[C@H]2[C@H](O[C@@H]3[C@@H](OC)OCCN32)[C@H](C)O1` [Compound 41], the EC50 came out at 0.42 nM.

Regarding `COc1cccc2c1C(=O)c1c(O)c3c(c(O)c1C2=O)C[C@@](O)(C(=O)N1CCNCC1)C[C@@H]3O[C@H]1C[C@H]2[C@H](O[C@@H]3[C@@H](OC)OCCN32)[C@H](C)O1` [Compound 68], the concentration for a half-maximal effect (EC50) came out at 8.1 nM.

As for `COc1cccc2c1C(=O)c1c(O)c3c(c(O)c1C2=O)C[C@@](O)(C(=O)NCC(C)(C)CN)C[C@@H]3O[C@H]1C[C@H]2[C@H](O[C@@H]3[C@@H](OC)OCCN32)[C@H](C)O1` [Compound 56], a half-maximal effect (EC50) was put at 1.4 nM.

Turning to `COc1cccc2c1C(=O)c1c(O)c3c(c(O)c1C2=O)C[C@@](O)(C(=O)NC[C@@H]1CCNC1)C[C@@H]3O[C@H]1C[C@H]2[C@H](O[C@@H]3[C@@H](OC)OCCN32)[C@H](C)O1` [Compound 58], the EC50 was 3.9 nM.

In turn, `COc1cccc2c1C(=O)c1c(O)c3c(c(O)c1C2=O)C[C@@](O)(C(=O)N1CC(CNC(=O)[C@H](C)N)C1)C[C@@H]3O[C@H]1C[C@H]2[C@H](O[C@@H]3[C@@H](OC)OCCN32)[C@H](C)O1` [Compound 6] showed an EC50 of 8.6 nM.

Take `COc1cccc2c1C(=O)c1c(O)c3c(c(O)c1C2=O)C[C@@](O)(C(=O)NCCNC(=O)[C@H](C)N)C[C@@H]3O[C@H]1C[C@H]2[C@H](O[C@@H]3[C@@H](OC)OCCN32)[C@H](C)O1` [Compound 7]: the EC50 is 13 nM.

For the compound `COc1cccc2c1C(=O)c1c(O)c3c(c(O)c1C2=O)C[C@@](O)(C(=O)N(C)CCN)C[C@@H]3O[C@H]1C[C@H]2[C@H](O[C@@H]3[C@@H](OC)OCCN32)[C@H](C)O1` [Compound 13], a half-maximal response (EC50) required 5.4 nM.

On to `COc1cccc2c1C(=O)c1c(O)c3c(c(O)c1C2=O)C[C@@](O)(C(=O)NCC(N)C(F)F)C[C@@H]3O[C@H]1C[C@H]2[C@H](O[C@@H]3[C@@H](OC)OCCN32)[C@H](C)O1` (stereo partly shown) [Compound 69], for which it took 0.16 nM to reach a half-maximal effect (EC50).

Consider `COc1cccc2c1C(=O)c1c(O)c3c(c(O)c1C2=O)C[C@@](O)(C(=O)NCC[C@H]1CCCN1)C[C@@H]3O[C@H]1C[C@H]2[C@H](O[C@@H]3[C@@H](OC)OCCN32)[C@H](C)O1` [Compound 45], for which the EC50 amounted to 0.6 nM.

For the compound `COc1cccc2c1C(=O)c1c(O)c3c(c(O)c1C2=O)C[C@@](O)(C(=O)N1C[C@H]2CN[C@H]2C1)C[C@@H]3O[C@H]1C[C@H]2[C@H](O[C@@H]3[C@@H](OC)OCCN32)[C@H](C)O1` [Compound 75], the EC50 was 2.9 nM.

Take `COc1cccc2c1C(=O)c1c(O)c3c(c(O)c1C2=O)C[C@@](O)(C(=O)NCc1ccc(N)nc1)C[C@@H]3O[C@H]1C[C@H]2[C@H](O[C@@H]3[C@@H](OC)OCCN32)[C@H](C)O1` [Compound 72]: the EC50 came out at 0.08 nM.

With `COc1cccc2c1C(=O)c1c(O)c3c(c(O)c1C2=O)C[C@@](O)(C(=O)N[C@H]1CCC[C@@H]1N)C[C@@H]3O[C@H]1C[C@H]2[C@H](O[C@@H]3[C@@H](OC)OCCN32)[C@H](C)O1` [Compound 80], the 50% effective concentration (EC50) stood at 14.1 nM.

`COc1cccc2c1C(=O)c1c(O)c3c(c(O)c1C2=O)C[C@@](O)(C(=O)NC12CC(NC(=O)CO)(C1)C2)C[C@@H]3O[C@H]1C[C@H]2[C@H](O[C@@H]3[C@@H](OC)OCCN32)[C@H](C)O1` [Compound 60] came in with a concentration giving a half-maximal response (EC50) of 0.55 nM.

As to `COc1cccc2c1C(=O)c1c(O)c3c(c(O)c1C2=O)C[C@@](O)(C(=O)N1C[C@@H]2CN[C@@H]2C1)C[C@@H]3O[C@H]1C[C@H]2[C@H](O[C@@H]3[C@@H](OC)OCCN32)[C@H](C)O1` [Compound 76], the EC50 worked out at 15 nM.

Regarding `COc1cccc2c1C(=O)c1c(O)c3c(c(O)c1C2=O)C[C@@](O)(C(=O)NCc1cnc(N)o1)C[C@@H]3O[C@H]1C[C@H]2[C@H](O[C@@H]3[C@@H](OC)OCCN32)[C@H](C)O1` [Compound 70], the EC50 worked out at 0.095 nM.

Regarding `COc1cccc2c1C(=O)c1c(O)c3c(c(O)c1C2=O)C[C@@](O)(C(=O)NCCCN(C)CCCN)C[C@@H]3O[C@H]1C[C@H]2[C@H](O[C@@H]3[C@@H](OC)OCCN32)[C@H](C)O1` [Compound 14], a half-maximal response (EC50) required 11 nM.

As to `COc1cccc2c1C(=O)c1c(O)c3c(c(O)c1C2=O)C[C@@](O)(C(=O)NC12CC(O)(C1)C2)C[C@@H]3O[C@H]1C[C@H]2[C@H](O[C@@H]3[C@@H](OC)OCCN32)[C@H](C)O1` [Compound 90], the EC50 was found to be 0.23 nM.

Turning to `COc1cccc2c1C(=O)c1c(O)c3c(c(O)c1C2=O)C[C@@](O)(C(=O)N1CC(N)C1)C[C@@H]3O[C@H]1C[C@H]2[C@H](O[C@@H]3[C@@H](OC)OCCN32)[C@H](C)O1` [Compound 24], a half-maximal effect (EC50) was put at 8.3 nM.

`COc1cccc2c1C(=O)c1c(O)c3c(c(O)c1C2=O)C[C@@](O)(C(=O)NCCNC(=O)NN)C[C@@H]3O[C@H]1C[C@H]2[C@H](O[C@@H]3[C@@H](OC)OCCN32)[C@H](C)O1` [Compound 5] displayed an EC50 of 2.8 nM.

`COc1cccc2c1C(=O)c1c(O)c3c(c(O)c1C2=O)C[C@@](O)(C(=O)N[C@@H]1CCCC[C@H]1N)C[C@@H]3O[C@H]1C[C@H]2[C@H](O[C@@H]3[C@@H](OC)OCCN32)[C@H](C)O1` [Compound 26] gave an EC50 of 2.7 nM.

`COc1cccc2c1C(=O)c1c(O)c3c(c(O)c1C2=O)C[C@@](O)(C(=O)NCCCCN)C[C@@H]3O[C@H]1C[C@H]2[C@H](O[C@@H]3[C@@H](OC)OCCN32)[C@H](C)O1` [Compound 54] came in with an EC50 of 1.4 nM.

`COc1cccc2c1C(=O)c1c(O)c3c(c(O)c1C2=O)C[C@@](O)(C(=O)N1CC(CN2CC(NC(=O)[C@H](C)N)C2)C1)C[C@@H]3O[C@H]1C[C@H]2[C@H](O[C@@H]3[C@@H](OC)OCCN32)[C@H](C)O1` [Compound 11] came in with an EC50 of 822 nM.

The compound `COc1cccc2c1C(=O)c1c(O)c3c(c(O)c1C2=O)C[C@@](O)(C(=O)NCc1ccc(O)cc1)C[C@@H]3O[C@H]1C[C@H]2[C@H](O[C@@H]3[C@@H](OC)OCCN32)[C@H](C)O1` [Compound 78] returned an EC50 of 0.056 nM.

As to `COc1cccc2c1C(=O)c1c(O)c3c(c(O)c1C2=O)C[C@@](O)(C(=O)NC1CNC1)C[C@@H]3O[C@H]1C[C@H]2[C@H](O[C@@H]3[C@@H](OC)OCCN32)[C@H](C)O1` [Compound 27], the midpoint of the response, the EC50, lay at 39 nM.

In turn, `COc1cccc2c1C(=O)c1c(O)c3c(c(O)c1C2=O)C[C@@](O)(C(=O)N[C@H]1C[C@@H](CN)C1)C[C@@H]3O[C@H]1C[C@H]2[C@H](O[C@@H]3[C@@H](OC)OCCN32)[C@H](C)O1` [Compound 55] came in with an EC50 of 10.2 nM.

Compound `COc1cccc2c1C(=O)c1c(O)c3c(c(O)c1C2=O)C[C@@](O)(C(=O)NCC(N)C(F)(F)F)C[C@@H]3O[C@H]1C[C@H]2[C@H](O[C@@H]3[C@@H](OC)OCCN32)[C@H](C)O1` (stereo partly shown) [Compound 65] gave a concentration giving a half-maximal response (EC50) of 0.16 nM.

In turn, `COc1cccc2c1C(=O)c1c(O)c3c(c(O)c1C2=O)C[C@@](O)(C(=O)NCCCN)C[C@@H]3O[C@H]1C[C@H]2[C@H](O[C@@H]3[C@@H](OC)OCCN32)[C@H](C)O1` [Compound 18] gave an EC50 of 8.5 nM.

In the case of `COc1cccc2c1C(=O)c1c(O)c3c(c(O)c1C2=O)C[C@@](O)(C(=O)N1CCC2(CNC2)C1)C[C@@H]3O[C@H]1C[C@H]2[C@H](O[C@@H]3[C@@H](OC)OCCN32)[C@H](C)O1` [Compound 29], a half-maximal response (EC50) required 90 nM.

Compound `COc1cccc2c1C(=O)c1c(O)c3c(c(O)c1C2=O)C[C@@](O)(C(=O)N[C@@H]1CCC[C@H]1N)C[C@@H]3O[C@H]1C[C@H]2[C@H](O[C@@H]3[C@@H](OC)OCCN32)[C@H](C)O1` [Compound 71] displayed an EC50 of 8.4 nM.

In turn, `CNCCNC(=O)[C@]1(O)Cc2c(O)c3c(c(O)c2[C@@H](O[C@H]2C[C@H]4[C@H](O[C@@H]5[C@@H](OC)OCCN54)[C@H](C)O2)C1)C(=O)c1c(OC)cccc1C3=O` [Compound 9] came in with an EC50 of 17 nM.

For `COc1cccc2c1C(=O)c1c(O)c3c(c(O)c1C2=O)C[C@@](O)(C(=O)NCC1CNC1)C[C@@H]3O[C@H]1C[C@H]2[C@H](O[C@@H]3[C@@H](OC)OCCN32)[C@H](C)O1` [Compound 47], a half-maximal response (EC50) required 9.4 nM.
